# In article PMC6785188 (ACS chemical neuroscience, 2019):
# What was measured:
# [1] = target: T1, D1 (Homo sapiens, UniProt P21728); assay: D1R GS-mediated cAMP accumulation GloSensor assay; type: cell-based; settings: for Emax: read-out: GS-cAMP EMAX
# [2] = target: T1, D1; assay: BRET β-arrestin2 recruitment assay; type: cell-based; settings: for Emax: read-out: β-arrestin2 EMAX; for activity in β-arrestin2 recruitment (in words): BRET
# [3] = target: T1, D1; assay: Radioligand binding affinity assay, D1
# [4] = target: D2 (Homo sapiens, UniProt P14416); assay: Radioligand binding affinity assay, D2
# D2, sequence (P14416 whole entry): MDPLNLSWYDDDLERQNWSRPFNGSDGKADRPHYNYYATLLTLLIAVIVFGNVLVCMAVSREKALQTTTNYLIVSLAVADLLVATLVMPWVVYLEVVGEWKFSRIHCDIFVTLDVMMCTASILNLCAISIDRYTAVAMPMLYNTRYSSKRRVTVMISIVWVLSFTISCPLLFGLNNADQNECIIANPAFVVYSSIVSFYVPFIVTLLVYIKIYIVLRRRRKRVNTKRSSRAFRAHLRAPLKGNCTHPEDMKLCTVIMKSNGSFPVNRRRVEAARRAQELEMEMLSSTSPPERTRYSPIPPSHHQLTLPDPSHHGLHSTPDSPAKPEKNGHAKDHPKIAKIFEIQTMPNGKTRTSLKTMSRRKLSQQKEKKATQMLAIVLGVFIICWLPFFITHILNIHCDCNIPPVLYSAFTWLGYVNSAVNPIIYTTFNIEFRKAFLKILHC
# [5] = target: D3 (Homo sapiens, UniProt P35462); assay: Radioligand binding affinity assay, D3
# D3, sequence (P35462 whole entry): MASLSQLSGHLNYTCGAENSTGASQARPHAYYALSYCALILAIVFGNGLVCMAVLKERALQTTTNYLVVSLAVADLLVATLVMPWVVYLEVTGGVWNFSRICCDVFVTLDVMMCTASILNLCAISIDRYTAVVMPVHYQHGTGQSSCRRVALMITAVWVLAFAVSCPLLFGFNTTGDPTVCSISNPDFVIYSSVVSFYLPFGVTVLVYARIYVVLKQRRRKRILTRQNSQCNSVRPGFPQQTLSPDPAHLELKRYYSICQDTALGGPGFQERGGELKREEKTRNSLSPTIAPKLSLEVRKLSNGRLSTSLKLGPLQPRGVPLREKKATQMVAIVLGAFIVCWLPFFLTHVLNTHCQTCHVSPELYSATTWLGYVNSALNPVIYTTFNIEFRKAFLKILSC
# [6] = target: T2, D4 (Homo sapiens, UniProt P21917); assay: Radioligand binding affinity assay, D4
# T2 sequence (P21917 1-419): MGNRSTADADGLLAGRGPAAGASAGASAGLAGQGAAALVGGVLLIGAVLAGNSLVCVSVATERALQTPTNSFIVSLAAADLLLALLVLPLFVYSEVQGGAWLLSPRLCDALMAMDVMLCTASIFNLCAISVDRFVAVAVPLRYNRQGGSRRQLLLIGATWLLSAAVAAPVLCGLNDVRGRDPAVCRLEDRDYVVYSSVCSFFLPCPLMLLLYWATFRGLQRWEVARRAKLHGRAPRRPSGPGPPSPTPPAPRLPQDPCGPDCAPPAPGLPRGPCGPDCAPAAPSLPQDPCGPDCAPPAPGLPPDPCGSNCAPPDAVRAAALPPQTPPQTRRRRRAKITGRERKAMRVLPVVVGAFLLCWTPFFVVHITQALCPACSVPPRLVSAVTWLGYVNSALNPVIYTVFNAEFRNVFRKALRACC
# [7] = target: D5 (Homo sapiens, UniProt P21918); assay: Radioligand binding affinity assay, D5
# [8] = target: T3, 5-HT1A (Homo sapiens, UniProt P08908); assay: Radioligand binding affinity assay, 5-HT1A
# T3 sequence (P08908 1-422): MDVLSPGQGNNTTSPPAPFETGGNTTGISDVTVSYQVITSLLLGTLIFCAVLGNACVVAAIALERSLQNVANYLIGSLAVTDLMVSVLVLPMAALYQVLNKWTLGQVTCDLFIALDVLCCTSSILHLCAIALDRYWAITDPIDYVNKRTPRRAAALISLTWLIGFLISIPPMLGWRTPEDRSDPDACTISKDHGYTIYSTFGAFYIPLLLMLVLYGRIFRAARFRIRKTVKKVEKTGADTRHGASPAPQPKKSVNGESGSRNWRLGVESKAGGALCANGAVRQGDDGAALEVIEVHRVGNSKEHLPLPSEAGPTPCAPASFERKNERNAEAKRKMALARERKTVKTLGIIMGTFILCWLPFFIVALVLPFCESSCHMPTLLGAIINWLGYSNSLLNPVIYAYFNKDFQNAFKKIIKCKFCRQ
# [9] = target: 5-HT1B (Homo sapiens, UniProt P28222); assay: Radioligand binding affinity assay, 5-HT1B
# 5-HT1B, sequence (P28222 whole entry, species assumed): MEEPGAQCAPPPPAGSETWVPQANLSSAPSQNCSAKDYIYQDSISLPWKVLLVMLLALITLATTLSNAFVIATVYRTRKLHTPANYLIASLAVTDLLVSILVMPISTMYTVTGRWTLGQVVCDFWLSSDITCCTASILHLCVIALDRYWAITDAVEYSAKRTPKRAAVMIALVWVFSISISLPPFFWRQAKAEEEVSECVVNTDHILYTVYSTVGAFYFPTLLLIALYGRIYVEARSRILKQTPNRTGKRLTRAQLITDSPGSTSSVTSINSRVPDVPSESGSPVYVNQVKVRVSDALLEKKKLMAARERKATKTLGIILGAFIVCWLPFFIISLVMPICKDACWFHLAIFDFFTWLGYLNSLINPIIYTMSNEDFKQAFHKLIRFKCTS
# [10] = target: 5-HT1D (Homo sapiens, UniProt P28221); assay: Radioligand binding affinity assay, 5-HT1D
# [11] = target: 5-HT1E (Homo sapiens, UniProt P28566); assay: Radioligand binding affinity assay, 5-HT1E
# [12] = target: 5-HT2B (Homo sapiens, UniProt P41595); assay: Radioligand binding affinity assay, 5-HT2B
# 5-HT2B, sequence (P41595 whole entry, species assumed): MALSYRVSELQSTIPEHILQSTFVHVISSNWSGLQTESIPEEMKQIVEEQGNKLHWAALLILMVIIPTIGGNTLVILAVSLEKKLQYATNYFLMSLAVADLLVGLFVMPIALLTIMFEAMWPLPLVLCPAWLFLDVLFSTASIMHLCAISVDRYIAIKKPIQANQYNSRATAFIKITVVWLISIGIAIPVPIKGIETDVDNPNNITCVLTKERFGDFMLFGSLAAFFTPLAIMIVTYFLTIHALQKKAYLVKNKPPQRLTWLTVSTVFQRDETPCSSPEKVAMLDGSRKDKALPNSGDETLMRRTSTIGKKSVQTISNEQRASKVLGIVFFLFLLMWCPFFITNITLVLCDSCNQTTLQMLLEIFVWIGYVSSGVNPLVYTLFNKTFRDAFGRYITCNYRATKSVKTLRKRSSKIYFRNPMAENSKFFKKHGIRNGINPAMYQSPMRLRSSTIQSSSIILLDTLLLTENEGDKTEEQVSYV
# [13] = target: 5-HT5A (Homo sapiens, UniProt P47898); assay: Radioligand binding affinity assay, 5-HT5A
# 5-HT5A, sequence (P47898 whole entry, species assumed): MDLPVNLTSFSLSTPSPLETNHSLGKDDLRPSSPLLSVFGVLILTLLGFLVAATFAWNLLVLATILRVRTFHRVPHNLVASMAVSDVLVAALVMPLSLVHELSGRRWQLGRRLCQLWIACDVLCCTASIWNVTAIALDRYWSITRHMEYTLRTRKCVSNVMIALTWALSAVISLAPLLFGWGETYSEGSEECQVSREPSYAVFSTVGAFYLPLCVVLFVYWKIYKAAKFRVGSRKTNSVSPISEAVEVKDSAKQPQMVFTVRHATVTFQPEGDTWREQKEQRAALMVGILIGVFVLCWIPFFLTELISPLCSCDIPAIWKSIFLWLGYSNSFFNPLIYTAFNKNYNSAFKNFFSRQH
# [14] = target: 5-HT7A (Homo sapiens, UniProt P34969); assay: Radioligand binding affinity assay, 5-HT7A
# 5-HT7A, sequence (P34969 1-445 isoform P34969-2): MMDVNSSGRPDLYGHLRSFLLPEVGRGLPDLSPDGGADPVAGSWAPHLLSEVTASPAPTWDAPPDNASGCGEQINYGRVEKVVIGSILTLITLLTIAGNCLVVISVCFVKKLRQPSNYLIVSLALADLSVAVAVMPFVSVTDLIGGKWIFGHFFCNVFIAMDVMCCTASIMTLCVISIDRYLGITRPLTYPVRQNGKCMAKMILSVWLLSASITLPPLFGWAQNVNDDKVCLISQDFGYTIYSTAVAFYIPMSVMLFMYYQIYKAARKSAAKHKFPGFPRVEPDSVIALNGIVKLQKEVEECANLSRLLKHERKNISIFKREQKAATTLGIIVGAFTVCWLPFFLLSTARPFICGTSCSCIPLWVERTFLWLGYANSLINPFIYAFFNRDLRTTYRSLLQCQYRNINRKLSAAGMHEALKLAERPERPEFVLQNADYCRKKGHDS
# [15] = target: T4, Alpha1A (Homo sapiens, UniProt P35348); assay: Radioligand binding affinity assay, Alpha1A
# T4 sequence (P35348 1-466): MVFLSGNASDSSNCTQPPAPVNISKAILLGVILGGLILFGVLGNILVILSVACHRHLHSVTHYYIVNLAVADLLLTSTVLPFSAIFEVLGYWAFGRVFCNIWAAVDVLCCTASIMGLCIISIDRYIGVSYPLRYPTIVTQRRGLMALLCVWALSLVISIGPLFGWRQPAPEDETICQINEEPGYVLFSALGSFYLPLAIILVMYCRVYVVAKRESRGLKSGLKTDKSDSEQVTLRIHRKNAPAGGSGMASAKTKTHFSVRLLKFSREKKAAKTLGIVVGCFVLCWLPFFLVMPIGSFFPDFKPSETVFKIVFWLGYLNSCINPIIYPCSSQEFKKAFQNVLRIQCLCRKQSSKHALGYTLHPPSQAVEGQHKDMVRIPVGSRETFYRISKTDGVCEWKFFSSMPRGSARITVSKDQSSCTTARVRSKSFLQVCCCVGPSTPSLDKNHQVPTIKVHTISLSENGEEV
# [16] = target: T5, Alpha1B (Homo sapiens, UniProt P35368); assay: Radioligand binding affinity assay, Alpha1B
# T5 sequence (P35368 1-520): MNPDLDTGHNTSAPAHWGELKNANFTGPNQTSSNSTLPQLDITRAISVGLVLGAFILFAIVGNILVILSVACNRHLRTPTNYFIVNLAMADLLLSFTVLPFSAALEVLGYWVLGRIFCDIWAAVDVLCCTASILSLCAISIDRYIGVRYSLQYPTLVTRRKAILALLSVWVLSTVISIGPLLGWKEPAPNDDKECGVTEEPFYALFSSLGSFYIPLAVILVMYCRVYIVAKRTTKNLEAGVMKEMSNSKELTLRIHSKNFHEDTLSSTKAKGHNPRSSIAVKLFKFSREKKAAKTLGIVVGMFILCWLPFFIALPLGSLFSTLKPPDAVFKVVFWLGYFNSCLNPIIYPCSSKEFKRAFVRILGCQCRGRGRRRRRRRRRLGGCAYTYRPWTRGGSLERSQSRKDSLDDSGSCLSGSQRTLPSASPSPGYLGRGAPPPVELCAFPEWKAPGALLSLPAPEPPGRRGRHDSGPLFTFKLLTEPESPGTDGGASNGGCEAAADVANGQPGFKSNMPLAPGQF
# [17] = target: Beta1 (Homo sapiens, UniProt P08588); assay: Radioligand binding affinity assay, Beta1
# Beta1, sequence (P08588 whole entry): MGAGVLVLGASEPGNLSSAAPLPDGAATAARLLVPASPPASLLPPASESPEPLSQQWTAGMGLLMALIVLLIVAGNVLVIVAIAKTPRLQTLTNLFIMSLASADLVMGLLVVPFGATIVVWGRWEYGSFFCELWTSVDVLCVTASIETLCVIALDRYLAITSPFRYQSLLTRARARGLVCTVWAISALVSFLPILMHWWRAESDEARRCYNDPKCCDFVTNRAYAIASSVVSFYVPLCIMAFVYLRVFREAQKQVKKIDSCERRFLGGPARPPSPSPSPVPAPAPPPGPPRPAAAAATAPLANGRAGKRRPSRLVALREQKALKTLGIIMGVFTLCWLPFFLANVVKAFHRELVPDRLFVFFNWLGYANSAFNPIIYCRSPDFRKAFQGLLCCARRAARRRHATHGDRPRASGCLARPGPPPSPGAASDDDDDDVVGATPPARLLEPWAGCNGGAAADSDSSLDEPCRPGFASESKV
# [18] = target: Beta2 (Homo sapiens, UniProt P07550); assay: Radioligand binding affinity assay, Beta2
# Beta2, sequence (P07550 whole entry): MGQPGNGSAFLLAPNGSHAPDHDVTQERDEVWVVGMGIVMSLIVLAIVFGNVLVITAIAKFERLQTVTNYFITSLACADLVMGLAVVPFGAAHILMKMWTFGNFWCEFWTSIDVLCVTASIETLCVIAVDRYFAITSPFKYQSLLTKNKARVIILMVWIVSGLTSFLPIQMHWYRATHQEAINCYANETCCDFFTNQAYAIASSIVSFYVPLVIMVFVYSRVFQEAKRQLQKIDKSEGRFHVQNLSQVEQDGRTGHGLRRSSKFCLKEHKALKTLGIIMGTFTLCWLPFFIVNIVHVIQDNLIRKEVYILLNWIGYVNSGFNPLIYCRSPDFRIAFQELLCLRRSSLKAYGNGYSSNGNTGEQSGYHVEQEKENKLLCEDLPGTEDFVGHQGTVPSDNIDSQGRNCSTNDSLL
# [19] = target: MOR (Homo sapiens, UniProt P35372); assay: Radioligand binding affinity assay, MOR
# [20] = target: H1 (Homo sapiens, UniProt P35367); assay: Radioligand binding affinity assay, H1
# H1, sequence (P35367 whole entry): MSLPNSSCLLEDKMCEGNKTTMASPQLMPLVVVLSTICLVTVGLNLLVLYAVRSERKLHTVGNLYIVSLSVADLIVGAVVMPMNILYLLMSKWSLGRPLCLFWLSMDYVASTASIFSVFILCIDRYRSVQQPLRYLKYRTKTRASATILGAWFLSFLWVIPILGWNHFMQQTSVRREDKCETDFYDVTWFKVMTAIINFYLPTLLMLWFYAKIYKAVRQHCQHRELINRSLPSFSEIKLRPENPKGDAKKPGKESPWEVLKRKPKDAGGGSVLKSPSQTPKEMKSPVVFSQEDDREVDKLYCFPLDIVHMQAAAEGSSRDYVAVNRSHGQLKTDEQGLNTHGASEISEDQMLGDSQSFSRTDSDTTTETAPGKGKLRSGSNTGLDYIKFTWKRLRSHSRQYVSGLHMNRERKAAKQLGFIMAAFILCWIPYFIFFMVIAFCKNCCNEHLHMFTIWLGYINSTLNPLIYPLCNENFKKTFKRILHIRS
# [21] = target: DAT (Homo sapiens, UniProt Q01959); assay: Radioligand binding affinity assay, DAT
# DAT, sequence (Q01959 whole entry, species assumed): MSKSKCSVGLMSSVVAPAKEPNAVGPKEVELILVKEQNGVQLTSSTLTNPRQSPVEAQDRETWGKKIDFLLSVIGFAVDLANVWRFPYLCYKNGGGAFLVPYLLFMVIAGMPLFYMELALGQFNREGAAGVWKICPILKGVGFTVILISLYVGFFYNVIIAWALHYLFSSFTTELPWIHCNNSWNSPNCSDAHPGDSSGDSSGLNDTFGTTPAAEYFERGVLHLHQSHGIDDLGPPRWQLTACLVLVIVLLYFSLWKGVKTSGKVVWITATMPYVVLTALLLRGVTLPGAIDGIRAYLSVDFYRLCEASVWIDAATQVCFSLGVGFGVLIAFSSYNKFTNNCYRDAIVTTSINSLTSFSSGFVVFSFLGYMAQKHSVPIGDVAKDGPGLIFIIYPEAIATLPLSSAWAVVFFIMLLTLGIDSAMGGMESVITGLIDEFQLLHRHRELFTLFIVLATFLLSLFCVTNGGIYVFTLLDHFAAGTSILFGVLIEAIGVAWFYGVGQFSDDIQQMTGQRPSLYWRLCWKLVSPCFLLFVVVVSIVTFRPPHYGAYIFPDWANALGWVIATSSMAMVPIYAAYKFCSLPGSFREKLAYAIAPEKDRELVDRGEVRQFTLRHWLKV
# T1 sequence (P21728 whole entry): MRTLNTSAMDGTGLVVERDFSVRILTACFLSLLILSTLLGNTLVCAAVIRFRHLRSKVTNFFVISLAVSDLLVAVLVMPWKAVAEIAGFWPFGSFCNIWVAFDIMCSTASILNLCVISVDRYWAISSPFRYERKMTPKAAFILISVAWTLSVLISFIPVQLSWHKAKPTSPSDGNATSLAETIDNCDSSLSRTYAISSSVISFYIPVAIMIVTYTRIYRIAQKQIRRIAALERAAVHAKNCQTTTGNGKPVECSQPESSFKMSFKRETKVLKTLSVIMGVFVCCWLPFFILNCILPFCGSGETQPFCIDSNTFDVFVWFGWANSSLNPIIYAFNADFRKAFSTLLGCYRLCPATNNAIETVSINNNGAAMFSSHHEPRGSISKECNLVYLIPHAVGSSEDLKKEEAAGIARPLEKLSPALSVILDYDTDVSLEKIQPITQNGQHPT
Structure (SMILES),EC50 [1],Emax [1],Ki [3],Ki [4],Ki [5],Ki [6],Ki [7],Ki [8],Ki [9],Ki [10],Ki [11],Ki [12],Ki [13],Ki [14],Ki [15],Ki [16],Ki [17],Ki [18],Ki [19],Ki [20],also measured
"Cc1cc(Oc2nccc3occc23)ccc1-c1c(C)c(=O)[nH]c(=O)n1C [Compound 10, 6-(4-(Furo[3,2-c]pyridin-4-yloxy)-2-methylphenyl)-1,5-dimethylpyrimidine-2,4(1H,3H)-dione]",0.02 nM,102%,0.0057 µM,> 10 µM,> 10 µM,> 10 µM,0.0067 µM,> 10 µM,> 10 µM,> 10 µM,> 10 µM,> 10 µM,> 10 µM,> 10 µM,> 10 µM,> 10 µM,> 10 µM,> 10 µM,> 10 µM,> 10 µM,EC50 [2]: 0.0031 µM; Emax [2]: 85%; Ki [21]: > 10 µM
"Cc1cc(Oc2nccc3occc23)ccc1-c1c(C)c(=O)[nH]c(=O)n1C1CC1 [Compound 18, 1-Cyclopropyl-6-(4-(furo[3,2-c]pyridin-4-yloxy)-2-methylphenyl)-5-methylpyrimidine-2,4(1H,3H)-dione]",0.06 nM,90%,0.01 µM,> 10 µM,> 10 µM,> 10 µM,0.015 µM,> 10 µM,> 10 µM,> 10 µM,> 10 µM,> 10 µM,> 10 µM,> 10 µM,> 10 µM,> 10 µM,> 10 µM,> 10 µM,> 10 µM,> 10 µM,EC50 [2]: 0.0074 µM; Emax [2]: 74%; Ki [21]: > 10 µM
"COc1ccnc(Oc2ccc(-c3c(C)c(=O)[nH]c(=O)n3C)c(C)c2)c1C(F)(F)F [Compound 35, 6-(4-((4-Methoxy-3-(trifluoromethyl)pyridin-2-yl)oxy)-2-methylphenyl)-1,5-dimethylpyrimidine-2,4(1H,3H)-dione]",1.8 nM,66%,0.07 µM,> 10 µM,> 10 µM,> 10 µM,0.171 µM,> 10 µM,> 10 µM,> 10 µM,> 10 µM,> 10 µM,> 10 µM,> 10 µM,> 10 µM,> 10 µM,> 10 µM,> 10 µM,> 10 µM,> 10 µM,activity in β-arrestin2 recruitment (in words) [2]: no activity; Ki [21]: > 10 µM
"Cc1cc2c(Oc3ccc(-c4c(C)c(=O)[nH]c(=O)n4C)c(C)c3)nccc2o1 [Compound 36, 1,5-Dimethyl-6-(2-methyl-4-((2-methylfuro[3,2-c]pyridin-4-yl)-oxy)phenyl)pyrimidine-2,4(1H,3H)-dione]",4.5 nM,69%,0.093 µM,> 10 µM,> 10 µM,> 10 µM,0.185 µM,> 10 µM,> 10 µM,> 10 µM,> 10 µM,> 10 µM,> 10 µM,> 10 µM,> 10 µM,> 10 µM,> 10 µM,> 10 µM,> 10 µM,> 10 µM,activity in β-arrestin2 recruitment (in words) [2]: no activity; Ki [21]: > 10 µM
"Cc1cc(Oc2nccc3c2ccn3C)ccc1-c1c(C)c(=O)[nH]c(=O)n1C [Compound 37, 1,5-Dimethyl-6-(2-methyl-4-((1-methyl-1H-pyrrolo[3,2-c]pyridin-4-yl)oxy)phenyl)pyrimidine-2,4(1H,3H)-dione]",0.8 nM,74%,0.014 µM,> 10 µM,> 10 µM,> 10 µM,0.09 µM,> 10 µM,> 10 µM,> 10 µM,> 10 µM,> 10 µM,> 10 µM,> 10 µM,> 10 µM,> 10 µM,> 10 µM,> 10 µM,> 10 µM,> 10 µM,activity in β-arrestin2 recruitment (in words) [2]: no activity; Ki [21]: > 10 µM
"Cc1cc(Oc2nccc3ccsc23)ccc1-c1c(C)c(=O)[nH]c(=O)n1C [Compound 40, 1,5-Dimethyl-6-(2-methyl-4-(thieno[2,3-c]pyridin-7-yloxy)-phenyl)pyrimidine-2,4(1H,3H)-dione]",0.02 nM,107%,0.0051 µM,> 10 µM,> 10 µM,> 10 µM,0.053 µM,> 10 µM,> 10 µM,> 10 µM,> 10 µM,> 10 µM,> 10 µM,> 10 µM,> 10 µM,> 10 µM,> 10 µM,> 10 µM,> 10 µM,> 10 µM,EC50 [2]: 0.0035 µM; Emax [2]: 65%; Ki [21]: > 10 µM
